Experimental data from US20240116892A1, “HETEROCYCLIC AMIDE AND UREA COMPOUNDS AS JAK2 INHIBITORS” (Ajax Therapeutics, Inc., priority 2022, published 2024).

These compounds were tested against JAK2 (JH1 domain-catalytic, Y1007F, Y1008F) kinase (Homo sapiens (Human), UniProt O60674, Y1007F/Y1008F) (assay: JAK2 JH1 Domain Binding Assay). Conditions: qPCR readout.
JAK2 (JH1 domain-catalytic, Y1007F, Y1008F) kinase, sequence (O60674 849-1124 Y1007F/Y1008F): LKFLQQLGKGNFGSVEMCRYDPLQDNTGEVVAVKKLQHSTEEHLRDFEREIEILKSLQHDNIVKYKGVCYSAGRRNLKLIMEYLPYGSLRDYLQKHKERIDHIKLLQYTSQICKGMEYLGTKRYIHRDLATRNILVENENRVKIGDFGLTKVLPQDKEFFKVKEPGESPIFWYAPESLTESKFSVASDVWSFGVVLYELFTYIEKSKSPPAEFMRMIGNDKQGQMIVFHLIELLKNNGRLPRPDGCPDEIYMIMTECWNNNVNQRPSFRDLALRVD
In short: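 JH1 catalytic domain (Y1007F/Y1008F) expressed as NFkB DNA-binding-domain fusion in HEK293 cells, DNA-tagged. Competition with immobilized biotinylated ligand on streptavidin beads, 1 h at RT in PBS/Tween/BSA/DTT; bound kinase eluted with free ligand and quantified by qPCR.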
For `CN(C(=O)Nc1cc(C(F)(F)F)cn(C)c1=O)C1CCN(c2cnc3[nH]n(C4CCOCC4)c(=O)c3c2)CC1` [Example I-112, 1-methyl-3-(1-methyl-2-oxo-5-(trifluoromethyl)-1,2-dihydropyridin-3-yl)-1-(1-(3-oxo-2-(tetrahydro-2H-pyran-4-yl)-2,3-dihydro-1H-pyrazolo[3,4-b]pyridin-5-yl)piperidin-4-yl)urea], the Kd was 10 to 50 nM.
In the case of `COCc1cc2nc(N3CC[C@H](N(C)C(=O)Nc4cc(C(F)(F)F)cn(C)c4=O)[C@@H](OC)C3)cnc2[nH]1` [Example I-113-a, 1-((3S,4S)-3-methoxy-1-(6-(methoxymethyl)-5H-pyrrolo[2,3-b]pyrazin-2-yl)piperidin-4-yl)-1-methyl-3-(1-methyl-2-oxo-5-(trifluoromethyl)-1,2-dihydropyridin-3-yl)urea], the Kd is reported as 50 to 1000 nM.
With `COCc1cc2nc(N3CC[C@@H](N(C)C(=O)Nc4cc(C(F)(F)F)cn(C)c4=O)[C@H](OC)C3)cnc2[nH]1` [Example I-113-b, 1-((3R,4R)-3-methoxy-1-(6-(methoxymethyl)-5H-pyrrolo[2,3-b]pyrazin-2-yl)piperidin-4-yl)-1-methyl-3-(1-methyl-2-oxo-5-(trifluoromethyl)-1,2-dihydropyridin-3-yl)urea] the Kd was 1000 to 5000 nM.
`CN(C(=O)Nc1cc(C(F)(F)F)cn(C)c1=O)[C@H]1CCN(c2cnc3[nH]nc(OC4CCOCC4)c3c2)C[C@@H]1F` [Example I-114-a, 1-((3S,4S)-3-fluoro-1-(3-((tetrahydro-2H-pyran-4-yl)oxy)-1H-pyrazolo[3,4-b]pyridin-5-yl)piperidin-4-yl)-1-methyl-3-(1-methyl-2-oxo-5-(trifluoromethyl)-1,2-dihydropyridin-3-yl)urea] was tested, and the Kd was under 10 nM.
For `CN(C(=O)Nc1cc(C(F)(F)F)cn(C)c1=O)[C@@H]1CCN(c2cnc3[nH]nc(OC4CCOCC4)c3c2)C[C@H]1F` [Example I-114-b, 1-((3R,4R)-3-fluoro-1-(3-((tetrahydro-2H-pyran-4-yl)oxy)-1H-pyrazolo[3,4-b]pyridin-5-yl)piperidin-4-yl)-1-methyl-3-(1-methyl-2-oxo-5-(trifluoromethyl)-1,2-dihydropyridin-3-yl)urea], the Kd was under 10 nM.
In the case of `CO[C@@H]1CN(c2cnc3[nH]nc(N(C)C)c3c2)CC[C@H]1N(C)C(=O)Nc1cc(C(F)(F)F)cn(C)c1=O` [Example I-115-a, 1-((3R,4R)-1-(3-(dimethylamino)-1/-pyrazolo[3,4-b]pyridin-5-yl)-3-methoxypiperidin-4-yl)-1-methyl-3-(1-methyl-2-oxo-5-(trifluoromethyl)-1,2-dihydropyridin-3-yl)urea], the Kd is reported as 10 to 50 nM.
`CO[C@H]1CN(c2cnc3[nH]nc(N(C)C)c3c2)CC[C@@H]1N(C)C(=O)Nc1cc(C(F)(F)F)cn(C)c1=O` [Example I-115-b, 1-((3S,4S)-1-(3-(dimethylamino)-1H-pyrazolo[3,4-b]pyridin-5-yl)-3-methoxypiperidin-4-yl)-1-methyl-3-(1-methyl-2-oxo-5-(trifluoromethyl)-1,2-dihydropyridin-3-yl)urea] gave a Kd of 50 to 1000 nM.
`CN(C(=O)Nc1cc(C(F)(F)F)cn(C)c1=O)C12CC(c3cnc4[nH]ncc4c3)(C1)C2` [Example I-116, 1-(3-(1H-pyrazolo[3,4-b]pyridin-5-yl)bicyclo[1.1.1]pentan-1-yl)-1-methyl-3-(1-methyl-2-oxo-5-(trifluoromethyl)-1,2-dihydropyridin-3-yl)urea] gave a Kd of under 10 nM.
Compound `CO[C@@H]1CN(c2cnc3[nH]c(C)cc3n2)CC[C@H]1N(C)C(=O)Nc1cc(C(F)(F)F)cn(C)c1=O` [Example I-117-a, 1-((3R,4R)-3-methoxy-1-(6-methyl-5H-pyrrolo[2,3-b]pyrazin-2-yl)piperidin-4-yl)-1-methyl-3-(1-methyl-2-oxo-5-(trifluoromethyl)-1,2-dihydropyridin-3-yl)urea] has a Kd of 50 to 1000 nM.
Work on `CO[C@H]1CN(c2cnc3[nH]c(C)cc3n2)CC[C@@H]1N(C)C(=O)Nc1cc(C(F)(F)F)cn(C)c1=O` [Example I-117-b, 1-((3S,4S)-3-methoxy-1-(6-methyl-5H-pyrrolo[2,3-b]pyrazin-2-yl)piperidin-4-yl)-1-methyl-3-(1-methyl-2-oxo-5-(trifluoromethyl)-1,2-dihydropyridin-3-yl)urea] yielded a Kd of 50 to 1000 nM.
For `CO[C@@H]1CN(c2cnc3[nH]cc(C)c3n2)CC[C@H]1N(C)C(=O)Nc1cc(C(F)(F)F)cn(C)c1=O` [Example I-118-a, 1-((3R,4R)-3-methoxy-1-(7-methyl-5H-pyrrolo[2,3-b]pyrazin-2-yl)piperidin-4-yl)-1-methyl-3-(1-methyl-2-oxo-5-(trifluoromethyl)-1,2-dihydropyridin-3-yl)urea], the Kd was 10 to 50 nM.
For `CO[C@H]1CN(c2cnc3[nH]cc(C)c3n2)CC[C@@H]1N(C)C(=O)Nc1cc(C(F)(F)F)cn(C)c1=O` [Example I-118-b, 1-((3S,4S)-3-methoxy-1-(7-methyl-5H-pyrrolo[2,3-b]pyrazin-2-yl)piperidin-4-yl)-1-methyl-3-(1-methyl-2-oxo-5-(trifluoromethyl)-1,2-dihydropyridin-3-yl)urea], the Kd was 50 to 1000 nM.
`CO[C@H]1C[C@H](n2[nH]c3ncc(N4CCC(N(C)C(=O)Nc5cc(C(F)(F)F)cn(C)c5=O)CC4)cc3c2=O)C1` [Example I-119, 1-(1-(2-((1r,3r)-3-methoxycyclobutyl)-3-oxo-2,3-dihydro-1H-pyrazolo[3,4-b]pyridin-5-yl)piperidin-4-yl)-1-methyl-3-(1-methyl-2-oxo-5-(trifluoromethyl)-1,2-dihydropyridin-3-yl)urea] gave a Kd of 1000 to 5000 nM.
For `Cn1cc(C(F)(F)F)cc(NC(=O)N(C)[C@H]2CC[C@H](c3cnc4[nH]ccc4n3)CC2)c1=O` [Example I-120-a, trans-1-(4-(5H-pyrrolo[2,3-b]pyrazin-2-yl)cyclohexyl)-1-methyl-3-(1-methyl-2-oxo-5-(trifluoromethyl)-1,2-dihydropyridin-3-yl)urea], the Kd was 50 to 1000 nM.
`Cn1cc(C(F)(F)F)cc(NC(=O)N(C)[C@H]2CC[C@@H](c3cnc4[nH]ccc4n3)CC2)c1=O` [Example I-120-b, cis-1-(4-(5H-pyrrolo[2,3-b]pyrazin-2-yl)cyclohexyl)-1-methyl-3-(1-methyl-2-oxo-5-(trifluoromethyl)-1,2-dihydropyridin-3-yl)urea] was tested, and the Kd was under 10 nM.
`CN(C(=O)Nc1cc(C(F)(F)F)cn(C)c1=O)C1CCN(c2cnc3[nH]cc(N4CCOCC4)c3n2)CC1` [Example I-124, 1-methyl-3-(1-methyl-2-oxo-5-(trifluoromethyl)-1,2-dihydropyridin-3-yl)-1-(1-(7-morpholino-5H-pyrrolo[2,3-b]pyrazin-2-yl)piperidin-4-yl)urea] was tested, and the Kd was under 10 nM.
Compound `CNc1n[nH]c2ncc(N3CC[C@@H](N(C)C(=O)Nc4cc(C(F)(F)F)cn(C)c4=O)C(F)(F)C3)cc12` [Example I-125-a, (R)-1-(3,3-difluoro-1-(3-(methylamino)-1H-pyrazolo[3,4-b]pyridin-5-yl)piperidin-4-yl)-1-methyl-3-(1-methyl-2-oxo-5-(trifluoromethyl)-1,2-dihydropyridin-3-yl)urea] has a Kd of under 10 nM.
`CNc1n[nH]c2ncc(N3CC[C@H](N(C)C(=O)Nc4cc(C(F)(F)F)cn(C)c4=O)C(F)(F)C3)cc12` [Example I-125-b, (S)-1-(3,3-difluoro-1-(3-(methylamino)-1H-pyrazolo[3,4-b]pyridin-5-yl)piperidin-4-yl)-1-methyl-3-(1-methyl-2-oxo-5-(trifluoromethyl)-1,2-dihydropyridin-3-yl)urea] showed a Kd of under 10 nM.
